Values quoted from earlier work in patent US9820956B2, “Compositions and methods for treating metabolic disorders” (PreKUlab, Ltd., priority 2003, dated 2017).
Read-outs that look alike come from different tables or passages of the source.

Experiments:
[1] = tested on: BBB transport system for basic amino acids
[2] = tested on: BBB transport system for acidic amino acids
[3] = tested on: intestinal epithelia transport
[4] = tested on: Phe transport in Caco-2 cells; settings: for % inhibition of Phe transport: 10 μM Phe, 1 mM of each competing amino acid, Caco-2 monolayers; for inhibition of Phe transport in human intestinal epithelial cells (in words): Caco-2
[5] = tested on: LNAA transport system in the BBB
[6] = absolute Km at BBB, basic amino acids, read-out: Km
[7] = apparent Km at BBB, basic aa's, read-out: Km(app)
[8] = absolute Km at BBB, neutral amino acid system, read-out: Km
[9] = apparent Km at BBB in presence of competing LNAAs, LNAA's, read-out: Km(app)

Km [3] [µM]	Km [5, 8] [µM]	Km [5, 9] [µM]	SMILES	% inhibition of Phe transport [4] [%]	further results
6000			N[C@@H](Cc1c[nH]cn1)C(=O)O [His, histidine]	33	Km [1, 6]: 280 µM; Km [1, 7]: 1100 µM
2000	150	530	CC(C)C[C@H](N)C(=O)O [Leu, leucine]	55	inhibition of Phe transport in human intestinal epithelial cells (in words) [4]: strong inhibitor
5000	190	770	CSCC[C@H](N)C(=O)O [Met, methionine]		
	730	3000	C[C@@H](O)[C@H](N)C(=O)O [Threo]		
3000	630	2500	CC(C)[C@H](N)C(=O)O [Val, valine]		
	330	1300	CC[C@H](C)[C@H](N)C(=O)O [iLeu, isoleucine]		

The next lines start with the compound.

SMILES	Km [3] [µM]	Km [5, 8] [µM]	Km [5, 9] [µM]	% inhibition of Phe transport [4] [%]	further results
N=C(N)NCCC[C@H](N)C(=O)O [Arg, arginine]					Km [1, 6]: 90 µM; Km [1, 7]: 400 µM
N[C@@H](CCC(=O)O)C(=O)O [Glu]					Km [2]: 40 µM
NCCCC[C@H](N)C(=O)O [Lys, lysine]				50	inhibition of Phe transport in human intestinal epithelial cells (in words) [4]: strong inhibition; Km [1, 6]: 100 µM; Km [1, 7]: 250 µM
N[C@@H](Cc1ccccc1)C(=O)O [Phe, phenylalanine]	1000	120	450		Km ([4]; Caco-2, measured by Hidalgo, read-out: Km for Phe at the intestinal cell transport system): 560 µM
N[C@@H](Cc1c[nH]c2ccccc12)C(=O)O [Trp, tryptophan]		190	710	36	
N[C@@H](Cc1ccc(O)cc1)C(=O)O [Tyr, tyrosine]		160	580	45	
